The values that follow come from patent US12059393B2, “Compositions for topical treatment of radiation dermatitis” (Akos Biosciences, Inc, priority 2022, dated 2024).

For this data set, the system named is 3D in vitro skin model containing epidermal keratinocytes and dermal fibroblasts. The data set is described as follows: LDH cytotoxicity assay in 3D in vitro skin model. To be noted: positive control, no UV; defines 100% cytotoxicity. In kind it is cell-based. Here is the method: A 3D in vitro skin model containing epidermal keratinocytes and dermal fibroblasts was used. Some tissues were irradiated with 200 mJ UVB/cm^2. Test materials were applied topically for 24 hours (after UVB exposure) and an MTT assay was used to check the viability of cells. The following treatment groups were used: • olive oil (no CBD); • CBD in olive oil in concentrations of 30, 60, 120, and 250 mg/mL; • No treatment; and • Triton-X® as positive control.
Cytotoxicity was assessed with a lactate dehydrogenase (LDH) assay using media collected from the wells of the tissues. Increased LDH activity is an indicator of damaged or dead cells.
The results are provided in the following Table A, with the untreated group defining 0% cytotoxicity and Triton-X defining 100% cytotoxicity. Lower cytotoxicity is better. * indicates p≤0.05 and ** indicates p≤0.01 statistical significance after performing unpaired t-test.

As to Triton-X, the “Cytotoxicity (%)” value is on record as 100%.
